Entries after “also recorded” stand apart in the source; their conditions may differ.
What was measured:
fourth-order PAs = assay: Pressure myography of mouse fourth-order PAs
Excerpt: Mouse fourth-order PAs (˜50 μm) were cannulated on glass micropipettes in a pressure myography chamber (The Instrumentation and Model Facility; University of Vermont; Burlington; VT; USA) and pressurized to a physiological pressure of 15 mm Hg (24). Briefly, freshly dissected lungs were placed in ice cold HEPES buffer in a dissection plate. The left lung was stretched and pinned down, with ventral side facing up. First, pulmonary veins, and then the airway were cut open to gain access to the pulmonary arteries underneath. Once PAs were visible, they were gently separated from surrounding tissue (25). Arteries were superfused with bicarbonate-physiological salt solution (PSS; 119 mmol/L NaCl; 4.7 mmol/L KCl; 1.2 mmol/L KH2PO4; 1.2 mmol/L MgCl2 hexahydrate; 2.5 mmol/L CaCl2) dihydrate; 7 mmol/L dextrose; and 24 mmol/L NaHCO3) at 37° ° C. and bubbled with 20% O2/5% CO2 to maintain the pH at 7.4. Approximately 20% PAs from normal mice develop myogenic tone, whereas ˜65% PA from Su+CH mice show myogenic tone at 15 mm Hg. Due to the relatively small percentage of PAs from normal mice showing myogenic tone, we pre-constricted all PAs with 30 nmol/L U46619 (a thromboxane A2 receptor agonist). […] U46619 was added to the chamber immediately, before the arteries could develop myogenic tone. Before measuring vascular reactivity, arteries were treated with NS309 (1 μmol/L), a direct activator of endothelial IK/SK channels, to assess endothelial health. […] Changes in arterial diameter were recorded at a 60-ms frame rate using a charge-coupled device camera and edge-detection software (IonOptix LLC; Westwood; MA; USA) (11, 26). At the end of each experiment, Ca^2+-free PSS (119 mmol/L NaCl; 4.7 mmol/L KCl; 1.2 mmol/L KH2PO4; 1.2 mmol/L MgCl2 hexahydrate; 7 mmol/L dextrose; 24 mmol/L NaHCO3; and 5 mmol/L EGTA) was applied to assess the maximum passive diameter. Percent constriction was calculated by:
[formula] • where Diameterbefore is the diameter of the artery before treatment and Diameterafter is the diameter after treatment. Percent dilation was calculated by:
[formula] • where Diameterbasal is the stable diameter before drug treatment, Diameterdilated is the diameter after drug treatment, and Diameterca-free is the maximum passive diameter.

large PAs = conditions: rats exposed to chronic hypoxia; reference (49); cited from earlier work
[1] = cited from earlier work
Su+CH mouse model of PH [2] = assay: Chronic treatment: RVSP, Fulton index and PA remodeling (histology, immunostaining); format: in vivo
Procedure: (§1) PH was induced by exposing C57BL6/J mice to chronic hypoxia (CH; 10% 02: 4 weeks) with concurrent treatment with the receptor tyrosine kinase inhibitor, SU5416 (20 mg·kg^−1), administered subcutaneously (s.c.) once a week (20). SU5416 was dissolved in DMSO/PEG 400 (50/50). Mice were exposed to CH conditions in a vinyl hypoxic chamber (Coy Laboratory Products; Inc. Grass Lake; MI; USA) connected to an auto purge airlock inlet. Oxygen concentration in the glove box was regulated by an oxygen controller and oxygen sensor (Coy Laboratory Products, Inc.). Control mice were maintained in room air for 4 weeks.
For PA remodeling studies, mice in the experimental group were treated with the IK/SK channel activator, SKA-31 (30 mg·kg^−1; i.p.), twice a day for the final 7 days of Su+CH exposure. Control mice were exposed to Su+CH for 4 weeks but were injected with vehicle instead of SKA-31. At the end of week 4 of Su+CH exposure, mice were euthanized with pentobarbital (90 mg·kg^−1; i.p.; UVA Hospital Pharmacy) and left lungs were perfused with the NO donor and fast-acting vasodilator, SNP (50 μmol/L; Sigma Aldrich), followed by incubation overnight at room temperature with 4% paraformaldehyde (PFA) for histology and immunostaining.
(§2) Mice were anesthetized with pentobarbital (50 mg·kg^−1; i.p.), and bupivacaine HCl (100 μL of 0.25% solution; s.c.) was used to numb the dissection site on the mouse. RVSP was measured as an indirect indicator of PAP (18, 21). Mice were cannulated with a Mikro-Tip pressure catheter (SPR-671; Millar Instruments; Houston; TX; USA), connected to a bridge amp (FE221) and a PowerLab 4/35 4-channel recorder (ADInstruments; Colorado Springs; CO; USA), through the external jugular vein into the right ventricle. Right ventricular pressure was acquired and analyzed using LabChart8 software (ADInstruments). In the subgroup of mice treated with SKA-31 (30 mg·kg^−1; i.p.), RVSP was measured before SKA-31 injection and 20 minutes after. A stable 3-minute recording was acquired for all animals, and a 1-minute continuous segment was used for data analysis. Where necessary, traces were digitally filtered using a low-pass filter at a cut-off frequency of 50 Hz. At the end of experiments, mice were euthanized, and their hearts were isolated for right ventricular hypertrophy analysis. Right ventricular hypertrophy was determined by calculating the Fulton index, a ratio of the right ventricular (RV) heart weight over the left ventricular (LV) plus septum (S) weight (RV/LV+S).
Isolated left lungs were perfused with PBS containing 50 μmol/L SNP and fixed in 4% PFA overnight at room temperature before paraffin embedding and sectioning. After sectioning paraffinized lungs, sections (5-μm thick) were deparaffinized and incubated in endogenous peroxidase (30%) for 30 minutes at room temperature, followed by a 5-minute wash with double-distilled H2O. For antigen retrieval, sections were microwaved in a citrate-based antigen unmasking solution (Vector Laboratories; Newark; CA; USA) for 20 minutes with brief pauses to avoid boiling. After allowing slides to cool in the antigen unmasking solution for 1 hour at room temperature, sections were permeabilized by incubating with 0.2% Triton-X for 30 minutes on a shaking rocker at room temperature, then blocked by incubating with 0.2% Triton-X, 5% normal donkey serum (ab7475; Abcam; Cambridge; MA; USA) and fish skin gelatin (FSG; Sigma Aldrich) for 1 hour. […]

IK/SK channels = conditions: reference (37); cited from earlier work
Su+CH mouse model of PH [3] = assay: RVSP measurement after acute treatment; format: in vivo
Procedure: as §1, §2

[4] = Cardiac functional magnetic resonance imaging; format: in vivo, mouse; conditions: acute SKA-31 administration
[5] = reference (33); cited from earlier work
[6] = system: IK/SK channels in SMCs from PAs; assay: Whole-cell patch-clamp in freshly isolated SMCs from small PAs; format: cell-based, mouse; conditions: TRAM-34 1 μmol/L and Apa 300 nmol/L added together after NS309 1 μmol/L; SMCs from control or Su+CH mice
Procedure: For SMC isolation (27), arterial segments were transferred to a 12×75 mm borosilicate glass culture tube containing 1 mL dissociation solution (145 mmol/L NaCl; 4 mmol/L KCl; 1 mmol/L MgCl2; 10 mmol/L HEPES; 0.05 mmol/L CaCl2), 10 mmol/L glucose; pH 7.3) and 0.5 mg/mL bovine serum albumin (BSA) and incubated for 10 minutes at room temperature (˜24° C.). The solution was then replaced with 1 mL dissociation solution containing 1 mg/mL papain (Sigma Aldrich) and 0.5 mg/mL dithiothreitol (Sigma Aldrich), and incubation was continued at 37° C. for 20 minutes. […]
Whole-cell currents were measured at room temperature using conventional whole-cell patch-clamp electrophysiology. […] The pipette solution for conventional patch clamp consisted of 10 mmol/L HEPES, 123.2 mmol/L KCl, 10 mmol/L NaCl, 5.5 mmol/L MgCl2, 0.2 mmol/L CaCl2) and 5 mmol/L HEDTA (adjusted to pH 7.2 with 16.8 mm KOH) and contained 3 μm free-Ca^2+ and 1 mmol/L free-Mg^2+, as calculated using the Max-Chelator program (Chris Patton; Stanford University; Stanford; CA; USA). […] Data were acquired using a Multiclamp 700B amplifier connected to a Digidata 1550B system and analyzed using Clampfit 11.1 software (Molecular Devices, San Jose, CA, USA).
NS309-induced ionic currents were measured in freshly isolated SMCs (FIG. 4A) from PAs in whole-cell patch-clamp experiments (FIGS. 4B and 4C).

[7] = 30 mg·kg−1 i.p. twice a day for 7 days

Nc1ncnc2c1ncn2[C@@H]1O[C@H](COP(=O)(O)OP(=O)(O)OP(=O)(O)O)[C@@H](O)[C@H]1O [ATP, adenosine triphosphate]
Dilation of PAs from CH+Su mice (fourth-order PAs; CH+Su mice): unable to dilate

NC(=NCCC[C@H](N)C(=O)O)N[N+](=O)[O-] [L-NNA]
Constriction of PAs from Su+CH mice (fourth-order PAs; L-NNA 100 μmol/L, Su+CH mice): unable constrict | Constriction of PAs from N mice (fourth-order PAs; L-NNA 100 μmol/L, normoxic mice): ~20%

CCn1c(=O)n(CC)c2c(Cl)c(Cl)ccc21 [NS4591]
Dilatory response of large PAs after chronic hypoxia (large PAs): decreases

Nc1nc2c(ccc3ccccc32)s1 [SKA-31, naphtho[1,2-d]thiazol-2-ylamine]
Metabolism ([1]; reason for in vivo use instead of NS309, reference (33)): favorable metabolism | Half-life in vivo ([1]; references (37, 38)): longer half-life | Collagen content of PAs (Masson's Trichrome) in Su+CH mice (Su+CH mouse model of PH [2]; [7]): reduced | Fulton index (right ventricular hypertrophy) in Su+CH mice, chronic treatment (Su+CH mouse model of PH [2]; [7]): significantly lowered; also recorded: reduced | α-actin immunostaining of PAs in Su+CH mice (Su+CH mouse model of PH [2]; [7]): reduced | RVSP in Su+CH mice, chronic treatment (Su+CH mouse model of PH [2]; 30 mg·kg−1 i.p. twice a day for 7 days, fourth week of Su+CH): significantly lowered | Pulmonary artery lesions in Su+CH mice, chronic treatment (Su+CH mouse model of PH [2]; chronic SKA-31): reduced | Potency as activator of IK/SK channels relative to NS309 (IK/SK channels): less potent | RVSP in Su+CH mice, acute treatment (Su+CH mouse model of PH [3]; 30 mg·kg−1 i.p., RVSP before and 20 minutes after injection, Su+CH mice): significantly reduced; also recorded: lowered | RVSP in normal (N) mice, acute treatment (Su+CH mouse model of PH [3]; 30 mg·kg−1 i.p., normoxic/control mice): not in N mice; also recorded: not observed in normal mice; also recorded: not in control mice | PAP in Su+CH mice, acute treatment (Su+CH mouse model of PH [3]; acute SKA-31, Su+CH mice but not control mice): lowered | Cardiac output [4]: does not alter | Ejection fraction [4]: does not alter | Heart rate [4]: does not alter | Stroke volume [4]: does not alter | Resting systemic blood pressure [5]: lowered

Clc1ccccc1C(c1ccccc1)(c1ccccc1)n1cccn1 [TRAM-34]
Constriction of small PAs (fourth-order PAs; TRAM-34 1 μmol/L and Apa 300 nmol/L applied together, not different between N and Su+CH mice): ~10% | Effect on NS309-induced outward currents in SMCs [6]: did not reduce

CCCCC[C@H](O)/C=C/[C@@H]1[C@@H](C/C=C\CCCC(=O)O)[C@H]2CO[C@@H]1C2 [U46619]
Arteries showing a constriction (fourth-order PAs; U46619 30 nmol/L, both normal and PH groups): More than 95%

Source: patent publication US20240216343A1, “ENDOTHELIAL IK AND SK CHANNEL ACTIVATION TO TREAT PULMONARY HYPERTENSION” (UNIVERSITY OF VIRGINIA PATENT FOUNDATION, priority 2023, published 2024)
